# According to PMC7077276 (Viruses, 2020):
# Entries after “also recorded” stand apart in the source; their conditions may differ.
# Columns and labels:
# PCV2 [1] = assay: Infectivity assay (titer, immunoblotting, qPCR, IFA); assay type: cell-based, porcine circovirus type 2 (PCV2); conditions: for anti-infective (antiviral) effect on PCV2: PK-15 cells, MOI = 1.0
# [2] = molecular target: T1, PCV2 capsid protein (dcapsid) (Porcine circovirus 2, UniProt O56129); assay: Microscale thermophoresis assay (MST), wild-type dcapsid; assay type: binding, porcine circovirus type 2 (PCV2)
# T1 construct: hexahistidine (N); made in house; host or cells: Escherichia coli BL21 (DE3)
# T1 sequence (O56129 42-233): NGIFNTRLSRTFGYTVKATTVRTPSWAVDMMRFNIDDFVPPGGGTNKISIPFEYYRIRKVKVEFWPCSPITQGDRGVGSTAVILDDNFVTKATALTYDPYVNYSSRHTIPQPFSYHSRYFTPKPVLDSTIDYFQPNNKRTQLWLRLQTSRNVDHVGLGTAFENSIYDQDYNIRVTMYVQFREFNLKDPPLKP
# [3] = molecular target: T2, PCV2 dcapsid bound to Heparin-Sepharose (Porcine circovirus 2, UniProt O56129); assay: Heparin column chromatography (competitive elution of dcapsid); assay type: binding, porcine circovirus type 2 (PCV2)
# T2 construct: hexahistidine (N); made in house; host or cells: Escherichia coli BL21 (DE3)
# T2 sequence (O56129 42-233): as above
# [4] = tested on: PCV2 dcapsid mutants bound to heparin column; assay: Heparin column chromatography of dcapsid mutants; assay type: binding, porcine circovirus type 2 (PCV2)
# PCV2 dcapsid mutant D78A = molecular target: T3, PCV2 dcapsid mutant D78A (Porcine circovirus 2, UniProt O56129, D78A); assay: Microscale thermophoresis assay (MST), dcapsid mutant D78A; assay type: binding, porcine circovirus type 2 (PCV2); conditions: read-out: Kd between EGCG and capsid mutant D78A
# T3 construct: hexahistidine (N); made in house; host or cells: Escherichia coli BL21 (DE3)
# T3 sequence (O56129 42-233 D78A): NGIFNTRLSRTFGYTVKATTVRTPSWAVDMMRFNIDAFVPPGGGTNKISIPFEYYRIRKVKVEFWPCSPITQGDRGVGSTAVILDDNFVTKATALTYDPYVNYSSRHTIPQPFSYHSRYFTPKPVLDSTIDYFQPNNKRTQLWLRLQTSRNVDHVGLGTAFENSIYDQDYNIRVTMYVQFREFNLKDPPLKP
# PCV2 dcapsid mutant R73A = molecular target: T4, PCV2 dcapsid mutant R73A (Porcine circovirus 2, UniProt O56129, R73A); assay: Microscale thermophoresis assay (MST), dcapsid mutant R73A; assay type: binding, porcine circovirus type 2 (PCV2); conditions: read-out: Kd between EGCG and capsid mutant R73A
# T4 construct: hexahistidine (N); made in house; host or cells: Escherichia coli BL21 (DE3)
# T4 sequence (O56129 42-233 R73A): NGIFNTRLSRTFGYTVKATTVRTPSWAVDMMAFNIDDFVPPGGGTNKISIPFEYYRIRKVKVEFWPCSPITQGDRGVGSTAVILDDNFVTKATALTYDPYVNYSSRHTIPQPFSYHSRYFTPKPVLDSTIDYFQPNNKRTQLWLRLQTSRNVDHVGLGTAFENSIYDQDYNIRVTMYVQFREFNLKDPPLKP
# PCV2 dcapsid mutant G54A = molecular target: T5, PCV2 dcapsid mutant G54A (Porcine circovirus 2, UniProt O56129, G54A); assay: Microscale thermophoresis assay (MST), dcapsid mutant G54A; assay type: binding, porcine circovirus type 2 (PCV2); conditions: read-out: Kd between EGCG and capsid mutant G54A
# T5 construct: hexahistidine (N); made in house; host or cells: Escherichia coli BL21 (DE3)
# T5 sequence (O56129 42-233 G54A): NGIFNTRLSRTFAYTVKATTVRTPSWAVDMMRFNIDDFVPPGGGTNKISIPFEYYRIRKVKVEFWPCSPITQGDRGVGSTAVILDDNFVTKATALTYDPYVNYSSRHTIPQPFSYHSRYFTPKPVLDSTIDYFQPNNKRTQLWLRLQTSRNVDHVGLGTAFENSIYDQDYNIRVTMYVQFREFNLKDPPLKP
# PCV2 dcapsid mutant D70A = molecular target: T6, PCV2 dcapsid mutant D70A (Porcine circovirus 2, UniProt O56129, D70A); assay: Microscale thermophoresis assay (MST), dcapsid mutant D70A; assay type: binding, porcine circovirus type 2 (PCV2); conditions: read-out: Kd between EGCG and capsid mutant D70A
# T6 construct: hexahistidine (N); made in house; host or cells: Escherichia coli BL21 (DE3)
# T6 sequence (O56129 42-233 D70A): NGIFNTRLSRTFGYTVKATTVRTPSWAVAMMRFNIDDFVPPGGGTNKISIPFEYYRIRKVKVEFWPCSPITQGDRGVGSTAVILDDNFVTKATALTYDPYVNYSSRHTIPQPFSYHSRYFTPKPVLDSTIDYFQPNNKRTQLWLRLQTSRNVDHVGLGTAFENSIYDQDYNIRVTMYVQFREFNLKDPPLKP
# PCV2 mutant viruses = assay: Infectivity assay of rescued PCV2 mutant viruses; assay type: cell-based, porcine circovirus type 2 (PCV2); conditions: 100 μM, whole infective process, titers at 72 hpi
# PCV2 dcapsid mutant R51A = molecular target: T7, PCV2 dcapsid mutant R51A (Porcine circovirus 2, UniProt O56129, R51A); assay: Microscale thermophoresis assay (MST), dcapsid mutant R51A; assay type: binding, porcine circovirus type 2 (PCV2); conditions: read-out: Kd between EGCG and capsid mutant R51A
# T7 construct: hexahistidine (N); made in house; host or cells: Escherichia coli BL21 (DE3)
# T7 sequence (O56129 42-233 R51A): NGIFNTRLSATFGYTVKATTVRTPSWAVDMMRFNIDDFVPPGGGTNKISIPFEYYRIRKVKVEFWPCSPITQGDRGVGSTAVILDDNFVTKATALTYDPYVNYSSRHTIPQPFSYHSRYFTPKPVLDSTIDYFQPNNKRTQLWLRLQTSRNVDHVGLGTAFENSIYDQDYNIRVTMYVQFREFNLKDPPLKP
# PK-15 cells = assay: Cytotoxicity assay (CCK8); assay type: cell-based, Porcine
# PCV2 [5] = assay: Time of addition and dilution experiment; assay type: cell-based, porcine circovirus type 2 (PCV2); conditions: for inhibitory effect of post-infection treatment: immunoblotting at 72 hpi
# PCV2 virions = assay: Binding assay of virions to PK-15 cells (qPCR, flow cytometry); assay type: cell-based, porcine circovirus type 2 (PCV2); conditions: 100 μM, binding 1 h at 4 °C, MOI = 5.0
# PCV2 dcapsid mutant N75A = molecular target: T8, PCV2 dcapsid mutant N75A (Porcine circovirus 2, UniProt O56129, N75A); assay: Microscale thermophoresis assay (MST), dcapsid mutant N75A; assay type: binding, porcine circovirus type 2 (PCV2); conditions: read-out: Kd between EGCG and capsid mutant N75A
# T8 construct: hexahistidine (N); made in house; host or cells: Escherichia coli BL21 (DE3)
# T8 sequence (O56129 42-233 N75A): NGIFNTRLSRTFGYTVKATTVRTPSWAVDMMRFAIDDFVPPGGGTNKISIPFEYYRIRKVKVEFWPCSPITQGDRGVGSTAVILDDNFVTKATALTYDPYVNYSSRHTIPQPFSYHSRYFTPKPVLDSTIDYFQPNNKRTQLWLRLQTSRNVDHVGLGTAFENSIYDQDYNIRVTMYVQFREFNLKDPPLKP
molecule,measurement,setting,value
"Oc1cc(O)c2c(c1)O[C@H](c1ccc(O)c(O)c1)[C@H](O)C2 [EC, epicatechin, reference compound]",anti-infective (antiviral) effect on PCV2,PCV2 [1]; 100 μM,no considerable anti-infective effect; also recorded: did not exert an antiviral effect
same,Kd,[2],951.3 ± 6.81 µM
same,lower affinity to capsid than EGCG,"[2]; MST, ratio of Kd",10 fold
same,dcapsid protein fraction eluted from heparin column,[3]; competitor 0.05 mg/mL,10.33 ± 4.50%
"O=C(O[C@@H]1Cc2c(O)cc(O)cc2O[C@@H]1c1cc(O)c(O)c(O)c1)c1cc(O)c(O)c(O)c1 [EGCG, Epigallocatechin gallate]","eluted level of R51A, D70A, R73A and D78A mutants","[4]; 0.5 mg/mL EGCG, especially D70A and D78A",remarkably reduced
same,"inhibitory effect of PCV2 infection (immunoblotting, qPCR)","PCV2 [1]; 10 μM, 72 hpi",still detectable
same,viral capsid protein expression (immunoblotting),"PCV2 [1]; 100 μM, 72 hpi",reduced level
same,viral genome copy number (qPCR),"PCV2 [1]; 100 μM, 72 hpi",reduction
same,quantity of PCV2 infected cells (IFA),"PCV2 [1]; 100 μM, MOI = 1.0, vs. without treatment",obviously lower
same,anti-infective (antiviral) effect on PCV2,PCV2 [1]; 100 μM,exhibited an inhibitory effect
same,virus titer of PCV2 infected cells,"PCV2 [1]; 100 μM, whole infective process, various time points, vs. without treatment",significant decrease
same,Kd,PCV2 dcapsid mutant D78A,1061 ± 8.08 µM
same,Kd,PCV2 dcapsid mutant R73A,971 ± 9.54 µM
same,Kd,PCV2 dcapsid mutant G54A,99.3 ± 9.29 µM
same,Kd,PCV2 dcapsid mutant D70A,863.7 ± 7.23 µM
same,antiviral effect on PCV2 (D70A) and PCV2 (D78A),PCV2 mutant viruses,could not be detected
same,"antiviral effect on PCV2 (G54A), PCV2 (N75A), PCV2 (WT) and PCV2 (A135A)",PCV2 mutant viruses,could inhibit the infectivity
same,Kd,[2],98 ± 4.76 µM
same,Kd,PCV2 dcapsid mutant R51A,591 ± 5.57 µM
same,cytotoxicity to PK-15 cells,"PK-15 cells; 100 μM, 24 h, 72 h and 120 h",did not generate significant cytotoxicity; also recorded: without causing significant toxicity
same,cytotoxicity to PK-15 cells,PK-15 cells; 200 μM,could produce cytotoxicity
same,dcapsid protein fraction eluted from heparin column,[3]; competitor 0.05 mg/mL,42.33 ± 3.52%
same,dcapsid protein fraction eluted from heparin column,[3]; competitor 0.5 mg/mL,90.00 ± 5.29%
same,inhibitory effect of post-infection treatment,PCV2 [5]; 100 μM for 4 h or 12 h after PCV2 infection,significant inhibitory effect could not be detected
same,inhibitory effect of post-infection treatment,PCV2 [5]; 100 μM for 24 h after PCV2 infection,only a slight effect
same,"inhibitory effect, pre-treated cells group","PCV2 [5]; cells pre-exposed 60 min at 37 °C, then infected, 72 hpi, immunoblotting, qPCR, titer",inhibitory effect could not be detected
same,antiviral effect in dilution assay,"PCV2 [5]; virions pretreated with 100 μM, diluted 10-fold before inoculation, immunoblotting, qPCR, titer",antiviral effect could still be detected
same,"antiviral effect, pre-treated virions group","PCV2 [5]; virus premixed with 10 μM, 72 hpi",non-sensitive
same,"antiviral effect, pre-treated virions group","PCV2 [5]; virus premixed with 100 μM, 72 hpi",prominent antiviral effect
same,bound PCV2 particles (qRT-PCR),PCV2 virions,decrease significantly
same,proportion of PCV2-attached cells (flow cytometry),PCV2 virions; untreated ~70%,~ 55%
same,Kd,PCV2 dcapsid mutant N75A,164 ± 5.29 µM
heparin [reference compound],eluted level of R51A and R73A mutants,[4]; 0.5 mg/mL heparin,most significant eluted reduction
